Measured values from paper PMC7403315, “Cyclic peptide FXII inhibitor provides safe anticoagulation in a thrombosis model and in artificial lungs” (Nature Communications, 2020).
“And” between values parts separate entries of the source, which are not always exact repeats. Identical values can stand only once. Starred links: 1 amine or outer side, 2 acyl side, 3 side chain; linkers in the order of their positions; H or OH if unused. Positions of bridges follow the written chain, without caps; N, C: chain ends. Non-standard residues stand in square brackets, D forms with d. Residues, ends and D or L forms follow the SMILES beside them. TATA = O=C(CC[*:1])N1CN(C(=O)CC[*:2])CN(C(=O)CC[*:3])C1; Phe(4-F) = N[C@@H](Cc1ccc(F)cc1)C(=O)O; β3hR = N=C(N)NCCC[C@H](N)CC(=O)O

How the values were obtained:
Type in all cases: biochemical
Mouse α-FXIIa = molecular target: T1, Mouse α-FXIIa (Mus musculus, UniProt Q80YC5); assay: FXIIa protease inhibition assay with fluorogenic substrate Boc-Gln-Gly-Arg-AMC
T1 construct: Mouse α-FXIIa; purchased Molecular Innovations MFXIIA
T1 sequence (Q80YC5 355-597 limits assumed): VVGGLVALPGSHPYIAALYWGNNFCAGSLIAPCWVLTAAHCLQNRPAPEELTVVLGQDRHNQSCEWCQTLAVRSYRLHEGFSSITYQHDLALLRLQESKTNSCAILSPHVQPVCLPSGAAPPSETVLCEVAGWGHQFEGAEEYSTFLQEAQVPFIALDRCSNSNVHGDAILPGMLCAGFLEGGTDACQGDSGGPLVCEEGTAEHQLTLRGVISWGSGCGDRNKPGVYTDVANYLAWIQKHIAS
T1 sequence (Q80YC5 20-354 limits assumed): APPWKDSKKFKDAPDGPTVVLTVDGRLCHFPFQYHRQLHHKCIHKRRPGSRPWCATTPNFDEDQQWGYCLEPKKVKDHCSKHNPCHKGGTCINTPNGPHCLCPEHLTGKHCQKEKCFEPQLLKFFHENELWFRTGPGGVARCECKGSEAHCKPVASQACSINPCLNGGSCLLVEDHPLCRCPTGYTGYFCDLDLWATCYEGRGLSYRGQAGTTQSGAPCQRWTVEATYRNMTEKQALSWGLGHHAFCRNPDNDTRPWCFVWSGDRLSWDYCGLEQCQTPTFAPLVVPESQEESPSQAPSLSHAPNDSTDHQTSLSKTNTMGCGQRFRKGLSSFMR
Method in brief: (§1)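 Mouse α-FXIIa or human β-FXIIa (0.4 nM final) was preincubated with bicyclic peptide for 10 min at 25 °C in Tris-Cl buffer with 1% DMSO. Residual activity was then read over 30 min with 50 µM Boc-Gln-Gly-Arg-AMC (ex 368/em 467 nm). IC50 came from sigmoidal fits, and Ki was derived by Cheng-Prusoff.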

human β-FXIIa = molecular target: T2, human β-FXIIa (Homo sapiens, UniProt P00748); assay: as above
T2 construct: human β-FXIIa (Molecular Innovations cat #); purchased Molecular Innovations HFXIIAB; host or cells: human blood
T2 sequence (P00748 373-615 limits assumed, other chains not shown): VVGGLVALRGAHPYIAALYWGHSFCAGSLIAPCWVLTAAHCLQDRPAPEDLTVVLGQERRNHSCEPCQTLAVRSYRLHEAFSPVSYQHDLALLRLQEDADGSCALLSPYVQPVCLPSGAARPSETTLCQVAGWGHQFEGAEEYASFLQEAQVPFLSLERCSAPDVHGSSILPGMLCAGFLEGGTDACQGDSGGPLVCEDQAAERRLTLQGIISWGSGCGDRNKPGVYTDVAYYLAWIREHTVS
Method in brief: as §1

Recombinant mouse FXII = molecular target: T3, Recombinant mouse FXII (Mus musculus, UniProt Q80YC5); assay: Inhibition of recombinant FXIIa (rFXIIa); details: read-out: Residual activity (%), Recombinant mouse FXII, individual plates
T3 sequence (Q80YC5 355-597 limits assumed): T1 sequence (Q80YC5 355-597 limits assumed)
T3 sequence (Q80YC5 20-354 limits assumed): T1 sequence (Q80YC5 20-354 limits assumed)

SMILES: CC(C)C[C@@H]1NC(=O)[C@H](CCC(N)=O)NC(=O)[C@H](Cc2c[nH]cn2)NC(=O)[C@@H]2CSCCC(=O)N3CN(CN(C3)C(=O)CCSC[C@H](NC(=O)[C@@H](CO)NC(=O)[C@H](N)CCCNC(=N)N)C(=O)N[C@@H](Cc3ccc(F)cc3)C(=O)N[C@@H](CCCNC(=N)N)C(=O)N[C@@H](CC(C)C)C(=O)N3CCC[C@H]3C(=O)N2)C(=O)CCSC[C@@H](C(N)=O)NC(=O)C[C@H](CCCNC(=N)N)NC1=O [FXII900] (H-[dR][dS]C[Phe(4-F)]RLPCHQL[β3hR]C-NH2; linker 3-8-13 via TATA)
- Ki (Mouse α-FXIIa): 0.45 ± 0.11 nM
- Ki (human β-FXIIa): 0.37 ± 0.04 nM
- Residual activity of human FXIIa (human β-FXIIa; inhibitor 0.030518 nM, 30.52 pM): 89.8015%
- Residual activity of human FXIIa (human β-FXIIa; inhibitor 0.03125 nM, 31.25 pM): 91.2184% and 98.3306%
- Residual activity of human FXIIa (human β-FXIIa; inhibitor 0.061035 nM, 61.04 pM): 87.3761%
- Residual activity of human FXIIa (human β-FXIIa; inhibitor 0.0625 nM, 62.5 pM): 92.1225% and 95.5725%
- Residual activity of human FXIIa (human β-FXIIa; inhibitor 0.12207 nM, 0.00012207 µM): 78.5763%
- Residual activity of human FXIIa (human β-FXIIa; inhibitor 0.125 nM, 0.000125 µM): 82.8895% and 92.0812%
- Residual activity of human FXIIa (human β-FXIIa; inhibitor 0.244141 nM, 0.000244141 µM): 65.9451%
- Residual activity of human FXIIa (human β-FXIIa; inhibitor 0.488281 nM, 0.000488281 µM): 44.4485%
- Residual activity of human FXIIa (human β-FXIIa; inhibitor 0.5 nM, 0.0005 µM): 54.1096% and 47.3759%
- Residual activity of human FXIIa (human β-FXIIa; inhibitor 1 nM, 0.001 µM): 29.6346% and 29.527%
- Residual activity of human FXIIa (human β-FXIIa; inhibitor 1.95312 nM, 0.00195312 µM): 9.983% and 4.833%
- Residual activity of human FXIIa (human β-FXIIa; inhibitor 2 nM, 0.002 µM): 13.0658% and 11.4779%
- Residual activity of human FXIIa (human β-FXIIa; inhibitor 3.90625 nM, 0.00390625 µM): 2.681% and 0.3074%
- Residual activity of human FXIIa (human β-FXIIa; inhibitor 4 nM, 0.004 µM): 2.623% and 4.603% and 9.7%
- Residual activity of human FXIIa (human β-FXIIa; inhibitor 7.8125 nM, 0.0078125 µM): 1.017% and -0.1178%
- Residual activity of human FXIIa (human β-FXIIa; inhibitor 8 nM, 0.008 µM): 0.8848% and 2.033% and 3.493%
- Residual activity of human FXIIa (human β-FXIIa; inhibitor 15.625 nM, 0.015625 µM): 1.594% and 0.3357%
- Residual activity of human FXIIa (human β-FXIIa; inhibitor 0.976562 / 0.976563 nM, 0.000976563 µM): 20.4026%
- remaining activity at 30.52 pM (human β-FXIIa; read-out: Residual activity of human FXIIa, inhibitor 0.030518 nM): 92.8%
- remaining activity at 31.25 pM (human β-FXIIa; read-out: Residual activity of human FXIIa, inhibitor 0.03125 nM): 90.7%
- remaining activity at 61.04 pM (human β-FXIIa; read-out: Residual activity of human FXIIa, inhibitor 0.061035 nM): 102%
- remaining activity at 62.5 pM (human β-FXIIa; read-out: Residual activity of human FXIIa, inhibitor 0.0625 nM): 89.8%
- remaining activity at 0.00012207 µM (human β-FXIIa; read-out: Residual activity of human FXIIa, inhibitor 0.12207 nM): 77.3%
- remaining activity at 0.000125 µM (human β-FXIIa; read-out: Residual activity of human FXIIa, inhibitor 0.125 nM): 80.4%
- remaining activity at 0.000244141 µM (human β-FXIIa; read-out: Residual activity of human FXIIa, inhibitor 0.244141 nM): 66.6%
- remaining activity at 0.000488281 µM (human β-FXIIa; read-out: Residual activity of human FXIIa, inhibitor 0.488281 nM): 51.8%
- remaining activity at 0.0005 µM (human β-FXIIa; read-out: Residual activity of human FXIIa, inhibitor 0.5 nM): 46.7%
- remaining activity at 0.001 µM (human β-FXIIa; read-out: Residual activity of human FXIIa, inhibitor 1 nM): 24.6%
- remaining activity at 0.002 µM (human β-FXIIa; read-out: Residual activity of human FXIIa, inhibitor 2 nM): 8.92%
- remaining activity at 0.03125 µM (human β-FXIIa; read-out: Residual activity of human FXIIa, inhibitor 31.25 nM): 0%
- remaining activity at 0.000976563 µM (human β-FXIIa; read-out: Residual activity of human FXIIa, inhibitor 0.976562 / 0.976563 nM): 29.9%
- remaining activity at 30.52 pM (Recombinant mouse FXII; peptide 0.030518 nM): 94.5%
- remaining activity at 61.04 pM (Recombinant mouse FXII; peptide 0.061035 nM): 95%
- remaining activity at 0.00012207 µM (Recombinant mouse FXII; peptide 0.12207 nM): 85.5%
- remaining activity at 0.000244141 µM (Recombinant mouse FXII; peptide 0.244141 nM): 77.6%
- remaining activity at 0.000488281 µM (Recombinant mouse FXII; peptide 0.488281 nM): 61.6%
- remaining activity at 0.000976563 µM (Recombinant mouse FXII; peptide 0.976563 nM): 37.8%
- remaining activity at 0.00195312 µM (Recombinant mouse FXII; peptide 1.95312 nM): 15.3%
- remaining activity at 0.0078125 µM (Recombinant mouse FXII; peptide 7.8125 nM): 0.768%
- remaining activity at 0.015625 µM (Recombinant mouse FXII; peptide 15.625 nM): 0%
- remaining activity at 0.03125 µM (Recombinant mouse FXII; peptide 31.25 nM): 0%
